These results are taken from publication PMC4687966 (Journal of medicinal chemistry, 2015).

Experiment [1] addresses T1, Mtb BioA (Mycobacterium tuberculosis, UniProt P9WQ81). It is filed as binding. Particulars: for KA / ΔH / −TΔS / ΔG: 25 °C; for KA / ΔH: 100 µM BioA, pH 7.5; for −TΔS: from ΔG = ΔH − TΔS; for ΔG: ΔG = −RT ln KA; for LE (ligand efficiency): LE = (−ΔG)/N, N = number of non-hydrogen atoms.
Experiment [2] addresses T1, Mtb BioA. As to the kind of experiment: Differential scanning fluorimetry. Type of experiment: binding. Conditions: DSF; holo BioA Tm 85 °C.

T1 sequence (P9WQ81 whole entry): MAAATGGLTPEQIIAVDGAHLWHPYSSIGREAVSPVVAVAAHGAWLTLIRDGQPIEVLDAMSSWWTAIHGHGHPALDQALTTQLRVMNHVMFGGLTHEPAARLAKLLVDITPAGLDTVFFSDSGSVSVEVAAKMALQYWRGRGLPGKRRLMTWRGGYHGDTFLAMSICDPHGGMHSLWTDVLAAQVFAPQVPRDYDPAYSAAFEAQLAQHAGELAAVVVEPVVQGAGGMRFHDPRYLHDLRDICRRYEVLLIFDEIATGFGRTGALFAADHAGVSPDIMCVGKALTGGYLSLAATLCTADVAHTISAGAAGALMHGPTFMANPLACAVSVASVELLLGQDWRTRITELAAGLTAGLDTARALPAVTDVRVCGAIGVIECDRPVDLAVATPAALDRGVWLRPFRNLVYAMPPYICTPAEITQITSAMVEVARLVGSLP

As for `NC(=O)c1ccc(-c2ccccn2)s1` [F2], in experiment [1] (ITC), the KA is 14.6 ± 1.3 10^4 M^−1, the ΔH was -5.4 ± 0.0 kcal/mol, the “−TΔS” value was -1.6 ± 0.1 kcal/mol and the ΔG was -7.0 ± 0.1 kcal/mol. In experiment [1], the “LE (ligand efficiency)” value is 0.50.

For `NC(=O)c1ccc(-n2ccnc2)cc1` [F3], in experiment [1] (ITC), the KA is 6.8 ± 1.3 10^4 M^−1, the ΔH was -6.3 ± 0.2 kcal/mol, the “−TΔS” value was -0.2 ± 0.1 kcal/mol and the ΔG was -6.6 ± 0.1 kcal/mol. In addition, the “LE (ligand efficiency)” value in experiment [1] came out at 0.47.

Consider `NCc1ccc(Cn2cc(Cl)cn2)cc1` [F5.1], for which, in experiment [1] (ITC), the “Improvement in KD over the parent fragment F5” value worked out at 1.7 fold, the KA was 14.9 ± 1.7 10^4 M^−1, the ΔH was -11.3 ± 0.5 kcal/mol and the “−TΔS” value was 4.3 ± 0.5 kcal/mol. The ΔG in experiment [1] (ITC) is -7.0 ± 0.1 kcal/mol. In experiment [1], the “LE (ligand efficiency)” value came to 0.47. Also, in experiment [2], the “Tm of BioA with compound” value amounted to 73 °C.

`CNCc1ccc(Cn2cccn2)cc1` [F5]: in experiment [1] (ITC), the “ΔH (enthalpic stabilization)” value is -12.9 kcal/mol, the “−TΔS (binding entropy)” value was “+6.2 kcal/mol”, the KA was 8.6 ± 0.1 10^4 M^−1 and the ΔH was -12.9 ± 0.6 kcal/mol. Moreover, in experiment [1] (ITC), the “−TΔS” value was 6.2 ± 0.6 kcal/mol and the ΔG was -6.7 ± 0.0 kcal/mol. The “LE (ligand efficiency)” value in experiment [1] is recorded as 0.45.

`O=C(c1ccccc1)C1CCNCC1` [F7]: in experiment [1] (ITC), the KA is reported as 2.4 ± 0.4 10^4 M^−1, the ΔH was -4.9 ± 0.2 kcal/mol, the “−TΔS” value is -1.1 ± 0.2 kcal/mol and the ΔG is -6.0 ± 0.1 kcal/mol. Besides, the “LE (ligand efficiency)” value in experiment [1] was 0.43.

On to `CC(=O)Nc1ccc2c(c1)C=CC2=O` [F9], for which, in experiment [1] (ITC), the KA was 4.6 ± 0.3 10^4 M^−1, the ΔH was -3.3 ± 0.2 kcal/mol, the “−TΔS” value is -3.0 ± 0.2 kcal/mol and the ΔG was -6.3 ± 0.0 kcal/mol. The “LE (ligand efficiency)” value in experiment [1] was 0.45.

In the case of `NCc1nc2ccccc2s1` [F10], in experiment [1] (ITC), the KA is listed as 3.3 ± 0.5 10^4 M^−1, the ΔH is -1.4 ± 0.2 kcal/mol, the “−TΔS” value was -4.8 ± 0.1 kcal/mol and the ΔG was -6.1 ± 0.1 kcal/mol. Moreover, the “LE (ligand efficiency)” value in experiment [1] worked out at 0.55.
